Measurements published in patent US10414759B2, “Phenylthiazoles and uses thereof” (Purdue Research Foundation, priority 2017, dated 2019).
≈ marks a conversion by molar mass, not a printed value. Read-outs that look alike come from different tables or passages of the source.

Legend:
[1] = Metabolic stability in human liver microsomes; assay type: in vitro ADME; details: pH 7.4, human liver microsomes
Description: The tested compounds were incubated in duplicate with human liver microsomes at 37° C. The reaction contained microsomal protein in 100 mM potassium phosphate, 2 mM NADPH, 3 mM MgCl2, pH 7.4. A control was run for each test agent omitting NADPH to detect NADPH-free degradation. At 0, 10, 20, 40, and 60 minutes, an aliquot was removed from each experimental and control reaction and mixed with an equal volume of ice-cold Stop Solution (methanol containing haloperidol, diclofenac, or other internal standard). Stopped reactions are incubated at least ten minutes at −20° C., and an additional volume of water was added. The samples were centrifuged to remove precipitated protein, and the supernatants were analyzed by LC/MS/MS to quantitate the remaining parent. Data are converted to % remaining by dividing by the time zero concentration value. Data are fit to a first-order decay model to determine half-life. Intrinsic clearance is calculated from the half-life and the protein concentrations: CLint=ln(2)/(T1/2 [microsomal protein]).

NRS123 (MRSA USA400) = test: MIC/MBC clinical isolate panel (Table 3); assay type: cell-based, S. aureus; details: Staphylococcus aureus, Table 3, NRS123 (MRSA USA400)
Description: (§1) Bacteria were cultured in cation-adjusted Mueller Hinton broth in a 96-well plate. Compounds, using triplicate samples, were added to the plate and serially diluted. […] Plates were visually inspected and the MIC was categorized as the concentration at which no visible growth of bacteria was observed. The average of triplicate MIC determinations is reported.
(§2) A bacterial solution equivalent to 0.5 McFarland standard was prepared and diluted in cation-adjusted Mueller-Hinton broth (CAMHB) to achieve a bacterial concentration of about 5×10^5 CFU/mL and seeded in 96-well plates. Enterococcus faecium was diluted in brain heart infusion broth. Enterococcus faecalis, Streptococcus pneumonia and Listeria monocytogenes were diluted in tryptone soya broth (TSB).

NRS382 (MRSA USA100) = test: MIC/MBC clinical isolate panel (Table 3); assay type: cell-based, S. aureus; details: Staphylococcus aureus, Table 3, NRS382 (MRSA USA100)
Description: as §1, §2

NRS383 (MRSA USA200) = test: MIC/MBC clinical isolate panel (Table 3); assay type: cell-based, S. aureus; details: Staphylococcus aureus, Table 3, NRS383 (MRSA USA200)
Description: as §1, §2

NRS384 (MRSA USA300) = test: MIC/MBC clinical isolate panel (Table 3); assay type: cell-based, S. aureus; details: Staphylococcus aureus, Table 3, NRS384 (MRSA USA300)
Description: as §1, §2

VRSA10 = test: MIC/MBC clinical isolate panel (Table 3); assay type: cell-based, S. aureus; details: Staphylococcus aureus, Table 3, VRSA10
Description: as §1, with “MRSA clinical isolates, and vancomycin-resistant Staphylococcus aureus (VRSA) strain were obtained through the Network of Antimicrobial Resistance in Staphylococcus aureus (NARSA) program. In addition, vancomycin-resistant Enterococcus faecium (VRE) strain was obtained from the ATCC. Bacteria” for “Bacteria”
(§3) The minimum inhibitory concentration (MIC) of tested compounds and control antibiotics were determined using the broth microdilution method in accordance with the recommendations contained in the Clinical and Laboratory Standards Institute guidelines, against methicillin-sensitive (ATCC 6538 and NRS107), methicillin-resistant (MRSA), and vancomycin-resistant (VRSA) Staphylococcus aureus, Staphylococcus epidermidis, Enterococcus faecalis, E. faecium, Listeria monocytogenes, and Streptococcus pneumoniae clinical isolates. A bacterial solution equivalent to 0.5 McFarland standard was prepared and diluted in cation-adjusted Mueller-Hinton broth (CAMHB) to achieve a bacterial concentration of about 5×10^5 CFU/mL and seeded in 96-well plates. Enterococcus faecium was diluted in brain heart infusion broth. Enterococcus faecalis, Streptococcus pneumonia and Listeria monocytogenes were diluted in tryptone soya broth (TSB). Compounds and control drugs were added in the first row of 96-well plates and serially diluted (to achieve a concentration gradient ranging from 128 to 1 μg/mL). Plates were then incubated aerobically at 37° C. for at least 18 hours. The minimum bactericidal concentration (MBC) of the active compounds was tested by plating 5 μL from wells with no growth onto Tryptic soy agar (TSA) plates.

VRE ATCC 700221 = test: MIC/MBC clinical isolate panel (Table 3); assay type: cell-based, Enterococcus faecium; details: Enterococcus, Table 3, VRE ATCC 700221
Description: as §1, with “MRSA clinical isolates, and vancomycin-resistant Staphylococcus aureus (VRSA) strain were obtained through the Network of Antimicrobial Resistance in Staphylococcus aureus (NARSA) program. In addition, vancomycin-resistant Enterococcus faecium (VRE) strain was obtained from the ATCC. Bacteria” for “Bacteria”
as §3

[2] = Plasma pharmacokinetics after single oral dose in rats; assay type: in vivo, Sprague-Dawley (SD) rats
Description: This assay has been conducted at a credited bioequivalence center (http://www.grc-me.com/pk_pd.html). Pharmacokinetic studies were performed in male naïve Sprague-Dawley (SD) rats, (three animals) following Institutional Animal Care and Use Committee guidelines. Oral dosing was administered by gavage in a vehicle containing 5% ethanol, 45% PEG 400, and 50% water. Blood samples were collected over a 24 h period post dose into Vacutainer tubes containing EDTA-K2. Plasma was isolated, and the concentration of compound 17 in plasma was determined with LC/MS/MS after protein precipitation with acetonitrile.
Non-compartmental pharmacokinetic analysis was performed on plasma concentration data to calculate pharmacokinetic parameters using Kinetica® 2000 (release 4.4.1).

MRSA (USA300) = test: Time-kill assay; assay type: cell-based, Staphylococcus aureus; details: MRSA US300, 3.0×MIC
Description: Aliquots (100 μL) were taken from each sample after 2, 4, 6, 8, 10, 12, and 24 hours, serially diluted in phosphate-buffered saline, and transferred to Trypticase soy agar (TSA) (Becton, Dickinson and Company, Sparks, Md., USA) plates. Plates were incubated at 37° C. for at least 16 hours before counting viable CFU/mL to determine the time required to reduce the bacterial cell count by 3-log10.

Caco-2 cells = test: Caco-2 bidirectional permeability assay
[3] = Table 6, single oral dose (30 mg/Kg) to rats
[4] = male, Sprague-Dawley, rat, plasma, Table 6, single oral dose (30 mg/Kg) to rats

In the case of CCCCc1ccc(-c2nc(C)c(-c3ccnc(NN)n3)s2)cc1 [Compound 17, 2-(4-Butylphenyl)-5-(2-hydrazinopyrimidin-4-yl)-4-methylthiazole], the microsomal CLint ([1]; NADPH omitted, read-out: NADPH-free Clint) is reported as 0.5 µL/min/mg, the half-life ([1]; NADPH omitted, read-out: NADPH-free t1/2) is reported as > 1 h and the microsomal CLint ([1]; with NADPH, read-out: NADPH-dependent CLint) is reported as 3 to 7.5 µL/min/mg. The half-life ([1]; with NADPH, read-out: NADPH-dependent t1/2) was 5.13 h, the MBC (NRS123 (MRSA USA400)) was 2 µg/mL (≈ 5.89 µM) and the MIC (NRS123 (MRSA USA400); read-out: MIC) was 2 µg/mL (≈ 5.89 µM). The MBC (NRS382 (MRSA USA100)) was 4 µg/mL (≈ 11.8 µM), the MIC (NRS382 (MRSA USA100); read-out: MIC) was 2 µg/mL (≈ 5.89 µM) and the MBC (NRS383 (MRSA USA200)) was 2 µg/mL (≈ 5.89 µM). For the same molecule, the MIC (NRS383 (MRSA USA200); read-out: MIC) was 2 µg/mL (≈ 5.89 µM), the MBC (NRS384 (MRSA USA300)) was 2 µg/mL (≈ 5.89 µM) and the MIC (NRS384 (MRSA USA300); read-out: MIC) was 2 µg/mL (≈ 5.89 µM). For the same molecule, the MBC (VRSA10; read-out: MBC) was 2 µg/mL (≈ 5.89 µM), the MIC (VRSA10; read-out: MIC) was 1 µg/mL (≈ 2.95 µM) and the MBC (VRE ATCC 700221; read-out: MBC) was 8 µg/mL (≈ 23.6 µM). It also gave an MIC (VRE ATCC 700221; read-out: MIC) of 2 µg/mL (≈ 5.89 µM), a thalf [2, 3] of 8.24 h and a λz [2, 3] of 0.19 h⁻¹. It also gave an MRT ([2]; male, Sprague-Dawley, rat, plasma, po, text b112, SD rats, 50 mg/Kg orally, read-out: in vivo mean residence time (MRT)) of ~8 h, an AUC [2, 4] of 100000 ng·h/mL and an AUC(0-t) [2, 4] of 83200 ng·h/mL. It also gave a Tmax [2, 4] of 4.67 h, an MRT ([2]; male, Sprague-Dawley, rat, plasma, Table 6, single oral dose (30 mg/Kg) to rats, read-out: MRT (mean residence time)) of 7.74 h and a Cmax ([2]; male, Sprague-Dawley, rat, po, text b112, SD rats, 50 mg/Kg orally, plasma) of 9300 ng/mL. For the same molecule, the Cmax ([2]; male, Sprague-Dawley, rat, Table 6, single oral dose (30 mg/Kg) to rats, plasma) was 9330 ng/mL, the “time required to reduce the MRSA inoculum to zero colony forming units” value (MRSA (USA300)) was ≤ 2 h and the “Mean A→B Papp” value (Caco-2 cells; Caco-2, apical to basolateral) was 1.6 ×10⁻⁶ cm/s. The “Mean B→A Papp” value (Caco-2 cells; Caco-2, basolateral to apical) was 2.8 ×10⁻⁶ cm/s and the Efflux ratio (Caco-2 cells; Papp (B→A)/Papp (A→B)) was 1.8.
